Laboratory results taken from patent US20180280321A1, “COMPOSITIONS AND METHODS THAT INHIBIT QUORUM SENSING” (The Office of Innovation Commercialization, priority 2015, published 2018).
Entries after “also recorded” stand apart in the source; their conditions may differ. Read-outs that look alike come from different tables or passages of the source.

Experiments:
MRSA isolate LAC [1] = assay type: in vivo; conditions: STZ-treated diabetic C57BL/6 mice, OHM given along with 5×10^7 CFU LAC
AgrAC-C199S = AgrAC-C199S (Staphylococcus aureus, UniProt P0A0I7, C199S); assay type: binding, S. aureus; conditions: SPR, His-tagged AgrAC-C199S on NTA biosensor, 25° C.
AgrAC and P2-FAM complex = AgrAC and P2-FAM complex (Staphylococcus aureus, UniProt P0A0I7); assay type: binding, S. aureus; conditions: EMSA, 2 μM AgrAC
[2] = tested on: RNAIII, psm α and hla transcription; assay type: cell-based, S. aureus
agr::P3 promoter [3] = assay type: cell-based; conditions: agr-I S. epidermidis AH3408, 5 μg/mL OHM, 24 hours
USA300 isolate LAC = assay type: in vivo, SKH1 mice; conditions: for bacterial burden at the site of infection: LAC infected, single OHM treatment
AgrC-WT isolate AH3469 = assay type: cell-based, S. aureus
agr::P3 promoter [4] = assay type: cell-based, S. aureus
S. aureus = assay type: cell-based; conditions: at concentrations that inhibit quorum sensing
[5] = tested on: S. aureus LAC / LACΔagr in RAW 264.7 macrophages; assay type: cell-based, mouse; conditions: LAC pre-treated with 5 μg/mL OHM, RAW 264.7, MOI 1:1; vs vehicle
[6] = tested on: S. aureus LAC / LACΔagr in human PMNs; assay type: cell-based
A549 cells = assay: Eukaryotic cytotoxicity, XTT assay; assay type: cell-based, human; conditions: A549, 24-hour incubation, at concentrations required for agr-inhibition
Method: (§1) Sigma-Aldrich, St. Louis, Mo.) and phenazine methosulfate (PMS; Sigma-Aldrich, St. Louis, Mo.) were used to perform an XTT assay as previously described (Scuderio et al., 1988, Cancer Res. 48:4827-4833). After 24 hours, spent media was removed and fresh media containing the indicated drug concentrations or vehicle was added to the cells and incubated for an additional 24 hours. […] Cell viability was assessed by the metabolic reduction of tetrazolium measured at OD490. Data are presented as percent viable cells compared to vehicle control.

HepG2 cells = assay: Eukaryotic cytotoxicity, XTT assay; assay type: cell-based, human; conditions: hepatocyte cell line (HepG2), 24-hour incubation, at concentrations required for agr-inhibition
Method: as §1

HEK293 cells = assay: Eukaryotic cytotoxicity, XTT assay; assay type: cell-based, human; conditions: HEK293, 24-hour incubation, at concentrations required for agr-inhibition
Method: as §1

[7] = molecular target: AgrAC binding to agr promoter DNA (P2-FAM) (Staphylococcus aureus, UniProt P0A0I7); set-up: species or system S. aureus; conditions: bead-based flow cytometry, biotinylated AgrAC on SA beads, P2-FAM 1.6 μM
MRSA isolate LAC [8] = assay type: in vivo, SKH1 mice; conditions: OHM injected subq near the site of infection four hours post-infection
human PMNs = assay type: cell-based; conditions: supernatant from OHM- versus vehicle-treated LAC, 5 μg/mL OHM, two hours

O=C1c2cc(O)cc(O)c2C(=O)c2c(O)cc(CO)cc21 [OHM, 1,3,8-trihydroxy-6-(hydroxymethyl)anthracene-9,10-dione]
abscess formation (MRSA isolate LAC [1]): limits abscess formation
ulcer formation (dermonecrosis) (MRSA isolate LAC [1]): limits abscess formation and dermonecrosis
direct binding to immobilized AgrAC (AgrAC-C199S): bound directly
inhibition of AgrAC binding to agr promoter DNA (AgrAC and P2-FAM complex): dose-dependent inhibition
transcription of RNAIII [2]: decreased transcription
transcription of alpha-hemolysin (hla) [2]: decreased transcription
agr activation (agr::P3 promoter) (agr::P3 promoter [3]): significantly inhibited
bacterial burden at the site of infection (USA300 isolate LAC; day seven post-infection): reduced
bacterial burden at the site of infection (USA300 isolate LAC; day three post-infection): reduced
differences between OHM and vehicle treated mice (abscesses and ulcers) (USA300 isolate LAC; mouse, in vivo): no differences were observed
histological analysis of skin sections: abscess formation and ulceration (USA300 isolate LAC; mouse, in vivo): overall reduction in abscess formation and ulceration
local Hla expression at the site of infection (western blot) (USA300 isolate LAC; mouse, in vivo): decreased local Hla expression
local IL-1β in abscess tissue (multiplex) (USA300 isolate LAC; mouse, in vivo): significant reductions
local IL-6 in abscess tissue (multiplex) (USA300 isolate LAC; mouse, in vivo): significant reductions
local TNFα in abscess tissue (multiplex) (USA300 isolate LAC; mouse, in vivo): significant reductions
transcription of il-1β in abscess tissue (USA300 isolate LAC; mouse, in vivo): reduced transcription
transcription of il-6 in abscess tissue (USA300 isolate LAC; mouse, in vivo): reduced transcription
transcription of nlrp3 in abscess tissue (USA300 isolate LAC; mouse, in vivo): decreased transcription
transcription of tnfα in abscess tissue (USA300 isolate LAC; mouse, in vivo): reduced transcription
morbidity (assessed by weight loss) (USA300 isolate LAC; mouse, in vivo, 0.25 mg/kg): significantly inhibited
abscess formation (USA300 isolate LAC; mouse, in vivo, sc, 0.25 mg/kg): significantly inhibited
ulcer (dermonecrosis) formation (USA300 isolate LAC; mouse, in vivo, sc, 0.25 mg/kg): significantly inhibited
agr-mediated Hla expression (lysis of rabbit RBCs) (AgrC-WT isolate AH3469): inhibited Hla expression
agr::P3 promoter activation (quorum sensing) (agr::P3 promoter [4]; agr-I, agr-II, agr-III, agr-IV reporter strains, OHM 100 to 0.05 μM): inhibited quorum sensing by all four agr types
in vitro agr-I transcription inhibition activity (agr::P3 promoter [4]; among polyhydroxyanthraquinones from Penicillium restrictum): most potent
bacterial growth (OD600) (S. aureus): do not impact bacterial growth; also recorded: absence of bactericidal or bacteriostatic effects
intracellular killing by mouse macrophages [5]: significantly increased intracellular killing
intracellular killing by human PMNs ([6]; LAC pre-treated with 5 μg/mL OHM, MOI 1:1, vs vehicle): significantly increased intracellular killing
opsonophagocytosis: total number and percent of bacteria phagocytosed ([6]; bacteria pre-treated with vehicle or OHM, human PMNs): equivalent
cell viability (toxicity) (A549 cells): non-toxic
cell viability (toxicity) (HepG2 cells): non-toxic
cell viability (toxicity) (HEK293 cells): non-toxic
inhibition of AgrAC binding to agr promoter DNA [7]: dose-dependent inhibition
abscess formation (MRSA isolate LAC [8]): limits abscess formation
ulcer area (dermonecrosis) (MRSA isolate LAC [8]): limits abscess formation and dermonecrosis
PMN survival in the presence of S. aureus supernatant (human PMNs): significantly increased survival
